Source: patent publication US7795218B2, “ADP-ribosyl transferase fusion variant proteins” (priority 2003, dated 2010)

Legend:
Assay type in all cases: cell-based, human
HUVEC [1] = assay: VEGF-dependent HUVEC migration (transwell); settings: 20 hours
Experimental: FIG. 33 illustrates that SEQ ID NO: 10 can modify VEGF-dependent HUVEC migration, wherein in (A) HUVEC were seeded into 24-well-fibronectin-coated transwell chambers containing SEQ ID NO: 10, Fasudil or Tranilast, migration was stimulated for 20 hours with 10 ng/mL of VEGF with or without test compound, migrated cells were measured by fluorescence using Calcein-AM as a probe, and in (B) HUVEC were pre-treated for 24 hours with 50 μg/mL of SEQ ID NO: 10 prior to the start of migration (results are expressed as a percentage of that from untreated cells stimulated with VEGF±SEM and represent 4 independent experiments analyzed in duplicate; symbols * and *** represent, respectively, significant (p<0.05) and highly significant (p<0.001) difference from untreated cells+VEGF (Control+VEGF); symbol # # # represents significant difference (p<0.001) from untreated cells−VEGF (Control−VEGF));
Another cellular function and part of the angiogenic process that is known to be perturbed by Rho GTPase inhibition is endothelial cell migration. In order to evaluate the effect of SEQ ID NO: 10 on HUVEC migration, cells are seeded in the upper side of a transwell insert along with the desired test compounds, and migration is then induced with 10 ng/mL of VEGF at the bottom side of the insert. After 20 hours of migration, cells that pass through the membrane of the insert are labeled with calcein AM probe and detected via fluorescence. […].

HUVEC [2] = assay: HUVEC tube formation on ECmatrix; settings: 50 μM
Experimental: FIG. 31 illustrates that SEQ ID NO: 10 decreases tube formation in HUVEC, wherein HUVEC were seeded on solidified ECmatrix™ without (Control) or with 10 μg/mL or 50 μg/mL of SEQ ID NO: 10 or the angiogenesis inhibitor Tranilast, cells were also incubated with 10 μM or 50 μM of the ROCK inhibitor Fasudil, capillary-like structures were visualized between 6 h to 20 h incubation, and wherein in (A) photographs were taken under phase contrast inverted microscope at 40× magnification and (B) quantification of tube length was reported as percentage of the length from untreated cells SEM (photographs and quantification are representative of at least 2 independent experiments analyzed in triplicate; symbols * and ** represent respectively significant (p<0.05) and highly significant (p<0.01) difference from untreated cells);
Referring to FIG. 31, to evaluate the importance of the signalling pathway Rho-Rock in angiogenesis, Transilat (10 μg/ml and 50 μg/ml) is used as a positive control. Transilat is known to block one of the principal angiogenesis routes i.e. the VEGF pathway. The binding of VEGF to VEGF-R stimulates tyrosine auto-phosphorylation of one of the receptors which initiates a signalling pathway, in part through PKC. Tranilast acts by inhibiting VEGF dependent PKC activation. […]

HUVEC [3] = assay: HUVEC proliferation (Alamar blue); settings: up to 100 μg/mL (or μM), 24 hr or 72 hr
Experimental: FIG. 32 illustrates that SEQ ID NO: 10 affects HUVEC proliferation at high concentration, wherein HUVEC were plated in 96 wells (collagen 1-coated) and incubated during 24 h or 72 with 0 to 100 μg/mL (or μM) of SEQ ID NO: 10, Fasudil or Tranilast, cells from 4 h and 24 h were washed out and replenished with fresh media containing no test compounds and left until 72 hours, and at the end of treatment (72 hours) Alamar blue was added, incubated for 4 hours and fluorescence was measured. Proliferation is represented in a graph as a percentage of that from untreated cells (0 μg/mL)±S.D. and represents 2 independent studies analyzed in triplicate;
Given that SEQ ID NO: 10 efficiently ribosylates RhoA and therefore inhibits its activity under these conditions, it appears that the proliferation of HUVEC in this system, along with this part of the angiogenic sequence, proceeds independently of RhoA activity. In contrast, HUVEC proliferation seems to depend on Rho kinase activity as well as on the activity of those targets, possibly including protein kinase C, blocked by Tranilast.

Row | Compound | decrease of VEGF-induced HUVEC migration (HUVEC [1]; 10 μg/mL) [%] | decrease of VEGF-induced HUVEC migration (HUVEC [1]; 50 μg/mL) [%] | decrease of tube formation (HUVEC [2]) [%] | HUVEC proliferation (HUVEC [3]) | decrease of VEGF-induced HUVEC migration (HUVEC [1]; 50 μM) [%]
1 | COc1ccc(/C=C/C(=O)Nc2ccccc2C(=O)O)cc1OC [Tranilast] | 45 | 72 |  |  | 
2 | O=S(=O)(c1cccc2cnccc12)N1CCCNCC1 [Fasudil] |  |  | 58 | significant (p<0.01) reductions in HUVEC cell proliferation | 66
